Patent publication US20240335542A1, “NANOMATERIALS COMPRISING DISULFIDES” (Beam Therapeutics Inc., priority 2021, published 2024)

Columns and labels:
[1] = LNP hydrodynamic diameter and polydispersity index by dynamic light scattering (DLS); format: physicochemical; details: LNP of 47.5% ionizable lipid: 40% cholesterol: 2.5% PEG-2000 DMG: 10% DPSC, N/P 4-8
Protocol: (§1) LNPs were prepared with 47.5% Ionizable Lipid (e.g., a compound provided herein): 40% cholesterol: 2.5% PEG-2000 DMG; and 10% DPSC and an N/P ratio range of 4-8. LNPs were formed by microfluidic mixing of the lipid and NA solutions using a Precision Nanosystems NanoAssemblr Spark or Benchtop series Instruments, according to the manufacturers protocol. A ratio of aqueous to organic solvent of approximately 2:1 or 3:1 was maintained during mixing using differential flow rates. After mixing, LNPs were collected, diluted in phosphate buffer saline (PBS) or Tris-buffered saline (TBS) (approximately 1:1 v/v). Further buffer exchange was conducted using dialysis in PBS or TBS at 4° C. for 4 to 24 hours against a 20 kDa filter. After this initial dialysis, each individual LNP preparation was characterized via dynamic light scattering (DLS) to measure the size (e.g., diameter) and polydispersity. LNPs falling within specific diameter and polydispersity ranges were pooled, and further dialyzed against PBS or TBS at 4° C. for 1 to 4 hours against a 100 kDa dialysis cassette. After the second dialysis, LNPs were sterile filtered using 0.22 μm filter and stored at 4° C. for further use.
LNP hydrodynamic diameter and polydispersity index (PDI) were measured using high throughput dynamic light scattering (DLS) (Stunner, Unchained Labs). LNPs were diluted 1×TBS or PBS to an appropriate concentration and analyzed.

[2] = RNA encapsulation efficiency of LNPs by Ribogreen assay; format: physicochemical; details: LNP of 47.5% ionizable lipid: 40% cholesterol: 2.5% PEG-2000 DMG: 10% DPSC, N/P 4-8
Protocol: as §1
RNA concentration and encapsulation efficiency were determined by Ribogreen assay (BioTek Synergy LX plate reader).

[3] = system: ALAS1 target site; test: In vivo base editing with LNP carrying adenine base editor mRNA and sgRNA, targeted deep sequencing; details: LNP with ABE mRNA + sgRNA, 0.15 mg/kg total RNA, tail vein, Balb/C mice, four to six days post-dose
Protocol: Exemplary LNP preparations were selected to determine each preparation's ability to perform base editing in a Balb/C mouse model as described herein.
Lipid nanoparticle components were dissolved in 100% ethanol at specified lipid component molar ratios. mRNA encoding an adenine base editor and a chemically-modified sgRNA was dissolved at a mass ratio of 1:1 in 50 mM citrate, pH 4.0, resulting in a concentration of NA cargo of approximately 0.1 mg/mL.
LNP preparations were formulated with molar ratios of 47.5% Ionizable Lipid: 40% Cholesterol: 2.5% PEG2000-DMG: 10% DSPC total lipid to NA mass ratio of 6 to 12. […]
A 3:1 ratio of aqueous to organic solvent was maintained during mixing using differential flow rates. […] After this initial dialysis, each individual LNP preparation was characterized via dynamic light scattering (DLS) to measure size and polydispersity. pKa of a subpopulation of LNP preparations was measured via TNS assay. […]
Age-matched mice were also used to administer vehicle (1×TBS) via tail vein injection as a control. […] Base editing was determined by performing targeted deep sequencing analysis at the ALAS1 target site using extracted genomic DNA. […] Library size and concentration was confirmed by Fragment Analyzer (Agilent) and analyzed for whole genome sequencing using an Illumina HiSeq.

[4] = LNP biodistribution in mice, barcode fold above input (FAI) in tissues; format: in vivo; details: pooled LNP IV tail vein, 4 hours post-dose, fold above input of barcode
Protocol: Male and female mice aged approximately 8-12 weeks were used for studies described by the present Example. Each mouse was temporarily restrained and pooled LNP was administered IV via tail vein injection in up to five animals per experiment. Age-matched mice was also used to administer vehicle (1×TBS) via tail vein injection in up to three animals per experiment. Additional routes of administration can also be conducted including intracerebral ventricular (ICV), intracisterna manga (ICM), intrathecal (IT), intramuscular (IM), nebulization, intranasal (IN), subcutaneous (SC), intraarticular, and intradermal (ID). At 4 hours post-dose, tissues including liver, spleen, bone marrow, testes, gastrocnemius, quadricep, lung, heart, kidney, and pancreas may be collected for analysis.
RNA from tissues were extracted using the Reliaprep RNA extraction kit, and libraries were prepared using the RNAseq kit, and sequenced on either a MiSeq or NextSeg500.
To screen for preferential LNP delivery to a target tissues, the relative abundance of each barcode in one or more target tissues was measured and compared to the relative abundance of each barcode to its corresponding relative input abundance to determine fold above input (FAI) for each barcode. If the FAI of a barcode in a target tissue is above a threshold or above the FAI of a different LNP in the same tissue, the LNP can be identified as preferentially delivering to the target tissue.
The FAI is the normalized relative abundance of a barcode in a selected sample as compared to its frequency in the input. The FAI of a barcode indicates how a LNP's abundance changes relative to the rest of the LNP pool. The FAI value of the barcode was calculated by normalizing the relative abundance in the barcode sequence counts in the isolated samples to its relative abundance in the administration input. […] The FAI then indicates the performance of an LNP relative to the input LNP composition.

Mean Diameter (nm) [1] | Mean PDI [1] | Mean Encapsulation Efficiency (%) [2] | FAI (Liver) ([4]; liver) | FAI (Lung) ([4]; lung) | FAI (Spleen) ([4]; spleen) | Structure (SMILES) | base editing observed in liver [3]
74.9 nm | 0.08 | 87.7% |  |  |  | CC/C=C\CCCCOC(CCCC(=O)Oc1ccc(CC(=O)OCCC2CCN(CCSSCCN3CCC(CCOC(=O)Cc4ccc(OC(=O)CCCC(OCCCC/C=C\CC)OCCCC/C=C\CC)cc4)CC3)CC2)cc1)OCCCC/C=C\CC [7-8, (((((disulfanediylbis(ethane-2,1-diyl))bis(piperidine-1,4-diyl))bis(ethane-2,1-diyl))bis(oxy))bis(2-oxoethane-2,1-diyl))bis(4,1-phenylene) bis(5,5-bis(((Z)-oct-5-en-1-yl)oxy)pentanoate)] | 13.7%
 |  |  | 0.50 | 1.02 | 1.46 | CCCCC/C=C\C/C=C\CCCCCCCCC(CCCCCCCC/C=C\C/C=C\CCCCC)OC(=O)CCCN(C)C [MC3, (6Z,9Z,28Z,31Z)-heptatriaconta-6,9,28,31-tetraen-19-yl 4-(dimethylamino) butanoate] | 
72.1 nm | 0.09 | 88.2% |  |  |  | CC/C=C\CCCCOC(CCC(=O)Oc1ccc(CC(=O)OCCC2CCN(CCSSCCN3CCC(CCOC(=O)Cc4ccc(OC(=O)CCC(OCCCC/C=C\CC)OCCCC/C=C\CC)cc4)CC3)CC2)cc1)OCCCC/C=C\CC [7-9, (((((disulfanediylbis(ethane-2,1-diyl))bis(piperidine-1,4-diyl))bis(ethane-2,1-diyl))bis(oxy))bis(2-oxoethane-2,1-diyl))bis(4,1-phenylene) bis(4,4-bis(((Z)-oct-5-en-1-yl)oxy)butanoate)] | 
